According to patent US4464385A, “Treatment of diabetic complications with hydantoins” (Alcon Laboratories, Inc., priority 1982, dated 1984):

System: cataracts in rats
Test: Prevention or retardation of cataracts in galactose-fed rats
Type: in vivo, rat
Settings: for suppression of the formation of nuclear cataracts: 30 days; for % of Total Eyes, + (vacuole) / % of Total Eyes, - (Normal) / % of Total Eyes, N (nuclear cataract) / % of Total Eyes, S (snowflake) / Number of Eyes Observed, + (vacuole) / Number of Eyes Observed, - (Normal) / Number of Eyes Observed, N (nuclear cataract) / Number of Eyes Observed, S (snowflake) / Number of Eyes Observed, ±: 30% galactose diet, A,C,E 0.0025%, B,D 0.01%
How it was run: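 Twelve rats per treatment, after two days on chow, were fed compound/diet mixtures ad libitum from Study Day 1 for thirty days; the 0.01% level was designed for 20 mg/kg/day. Cataracts were scored per eye using ophthalmoscope and/or penlight.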

Structure (SMILES): C[S+]([O-])c1ccc2c(c1)C1(CCO2)NC(=O)NC1=O (stereo not shown) [D, spiro-(6-methylsulfinylchroman-4,4'-imidazolidine)-2',5'-dione]
- suppression of the formation of nuclear cataracts (0.0025% in diet): greater than 80%
- time to vacuole formation, versus galactose control (0.01% in diet): different (p<0.05) from control
- suppression of the formation of nuclear cataracts (0.01% in diet): greater than 80%
- % of Total Eyes, + (vacuole) (Study Day 2): 0%
- % of Total Eyes, - (Normal) (Study Day 2): 100.0%
- % of Total Eyes, N (nuclear cataract) (Study Day 2): 0%
- % of Total Eyes, S (snowflake) (Study Day 2): 0%
- Number of Eyes Observed, + (vacuole) (Study Day 2): 0 eyes
- Number of Eyes Observed, - (Normal) (Study Day 2): 24 eyes
- Number of Eyes Observed, N (nuclear cataract) (Study Day 2): 0 eyes
- Number of Eyes Observed, S (snowflake) (Study Day 2): 0 eyes
- Number of Eyes Observed, ± (Study Day 2): 0 eyes
- % of Total Eyes, + (vacuole) (Study Day 3): 0%
- % of Total Eyes, - (Normal) (Study Day 3): 91.7%
- % of Total Eyes, N (nuclear cataract) (Study Day 3): 0%
- % of Total Eyes, S (snowflake) (Study Day 3): 0%
- Number of Eyes Observed, + (vacuole) (Study Day 3): 0 eyes
- Number of Eyes Observed, - (Normal) (Study Day 3): 22 eyes
- Number of Eyes Observed, N (nuclear cataract) (Study Day 3): 0 eyes
- Number of Eyes Observed, S (snowflake) (Study Day 3): 0 eyes
- Number of Eyes Observed, ± (Study Day 3): 2 eyes
- % of Total Eyes, + (vacuole) (Study Day 4): 16.7%
- % of Total Eyes, - (Normal) (Study Day 4): 75.0%
- % of Total Eyes, N (nuclear cataract) (Study Day 4): 0%
- % of Total Eyes, S (snowflake) (Study Day 4): 0%
- Number of Eyes Observed, + (vacuole) (Study Day 4): 4 eyes
- Number of Eyes Observed, - (Normal) (Study Day 4): 18 eyes
- Number of Eyes Observed, N (nuclear cataract) (Study Day 4): 0 eyes
- Number of Eyes Observed, S (snowflake) (Study Day 4): 0 eyes
- Number of Eyes Observed, ± (Study Day 4): 2 eyes
- % of Total Eyes, + (vacuole) (Study Day 5): 33.3%
- % of Total Eyes, - (Normal) (Study Day 5): 33.3%
- % of Total Eyes, N (nuclear cataract) (Study Day 5): 0%
- % of Total Eyes, S (snowflake) (Study Day 5): 0%
- Number of Eyes Observed, + (vacuole) (Study Day 5): 8 eyes
- Number of Eyes Observed, - (Normal) (Study Day 5): 8 eyes
- Number of Eyes Observed, N (nuclear cataract) (Study Day 5): 0 eyes
- Number of Eyes Observed, S (snowflake) (Study Day 5): 0 eyes
- Number of Eyes Observed, ± (Study Day 5): 8 eyes
- % of Total Eyes, + (vacuole) (Study Day 6): 41.6%
- % of Total Eyes, - (Normal) (Study Day 6): 25.0%
- % of Total Eyes, N (nuclear cataract) (Study Day 6): 0%
- % of Total Eyes, S (snowflake) (Study Day 6): 0%
- Number of Eyes Observed, + (vacuole) (Study Day 6): 10 eyes
- Number of Eyes Observed, - (Normal) (Study Day 6): 6 eyes
- Number of Eyes Observed, N (nuclear cataract) (Study Day 6): 0 eyes
- Number of Eyes Observed, S (snowflake) (Study Day 6): 0 eyes
- Number of Eyes Observed, ± (Study Day 6): 8 eyes
- % of Total Eyes, + (vacuole) (Study Day 8): 50.0%
- % of Total Eyes, - (Normal) (Study Day 8): 16.7%
- % of Total Eyes, N (nuclear cataract) (Study Day 8): 0%
- % of Total Eyes, S (snowflake) (Study Day 8): 8.3%
- Number of Eyes Observed, + (vacuole) (Study Day 8): 12 eyes
- Number of Eyes Observed, - (Normal) (Study Day 8): 4 eyes
- Number of Eyes Observed, N (nuclear cataract) (Study Day 8): 0 eyes
- Number of Eyes Observed, S (snowflake) (Study Day 8): 2 eyes
- Number of Eyes Observed, ± (Study Day 8): 6 eyes
- % of Total Eyes, + (vacuole) (Study Day 10): 58.4%
- % of Total Eyes, - (Normal) (Study Day 10): 8.3%
- % of Total Eyes, N (nuclear cataract) (Study Day 10): 0%
- % of Total Eyes, S (snowflake) (Study Day 10): 16.7%
- Number of Eyes Observed, + (vacuole) (Study Day 10): 14 eyes
- Number of Eyes Observed, - (Normal) (Study Day 10): 2 eyes
- Number of Eyes Observed, N (nuclear cataract) (Study Day 10): 0 eyes
- Number of Eyes Observed, S (snowflake) (Study Day 10): 4 eyes
- Number of Eyes Observed, ± (Study Day 10): 4 eyes
- % of Total Eyes, + (vacuole) (Study Day 12): 62.5%
- % of Total Eyes, - (Normal) (Study Day 12): 0%
- % of Total Eyes, N (nuclear cataract) (Study Day 12): 0%
- % of Total Eyes, S (snowflake) (Study Day 12): 20.8%
- Number of Eyes Observed, + (vacuole) (Study Day 12): 15 eyes
- Number of Eyes Observed, - (Normal) (Study Day 12): 0 eyes
- Number of Eyes Observed, N (nuclear cataract) (Study Day 12): 0 eyes
- Number of Eyes Observed, S (snowflake) (Study Day 12): 5 eyes
- Number of Eyes Observed, ± (Study Day 12): 4 eyes
- % of Total Eyes, + (vacuole) (Study Day 14): 62.5%
- % of Total Eyes, - (Normal) (Study Day 14): 0%
- % of Total Eyes, N (nuclear cataract) (Study Day 14): 0%
- % of Total Eyes, S (snowflake) (Study Day 14): 29.2%
- Number of Eyes Observed, + (vacuole) (Study Day 14): 15 eyes
- Number of Eyes Observed, - (Normal) (Study Day 14): 0 eyes
- Number of Eyes Observed, N (nuclear cataract) (Study Day 14): 0 eyes
- Number of Eyes Observed, S (snowflake) (Study Day 14): 7 eyes
- Number of Eyes Observed, ± (Study Day 14): 2 eyes
- % of Total Eyes, + (vacuole) (Study Day 16): 45.8%
- % of Total Eyes, - (Normal) (Study Day 16): 0%
- % of Total Eyes, N (nuclear cataract) (Study Day 16): 0%
- % of Total Eyes, S (snowflake) (Study Day 16): 37.5%
- Number of Eyes Observed, + (vacuole) (Study Day 16): 13 eyes
- Number of Eyes Observed, - (Normal) (Study Day 16): 0 eyes
- Number of Eyes Observed, N (nuclear cataract) (Study Day 16): 0 eyes
- Number of Eyes Observed, S (snowflake) (Study Day 16): 9 eyes
- Number of Eyes Observed, ± (Study Day 16): 2 eyes
- % of Total Eyes, + (vacuole) (Study Day 18): 54.2%
- % of Total Eyes, - (Normal) (Study Day 18): 0%
- % of Total Eyes, N (nuclear cataract) (Study Day 18): 0%
- % of Total Eyes, S (snowflake) (Study Day 18): 37.5%
- Number of Eyes Observed, + (vacuole) (Study Day 18): 13 eyes
- Number of Eyes Observed, - (Normal) (Study Day 18): 0 eyes
- Number of Eyes Observed, N (nuclear cataract) (Study Day 18): 0 eyes
- Number of Eyes Observed, S (snowflake) (Study Day 18): 9 eyes
- Number of Eyes Observed, ± (Study Day 18): 2 eyes
- % of Total Eyes, + (vacuole) (Study Day 20): 29.2%
- % of Total Eyes, - (Normal) (Study Day 20): 0%
- % of Total Eyes, N (nuclear cataract) (Study Day 20): 4.2%
- % of Total Eyes, S (snowflake) (Study Day 20): 58.4%
- Number of Eyes Observed, + (vacuole) (Study Day 20): 7 eyes
- Number of Eyes Observed, - (Normal) (Study Day 20): 0 eyes
- Number of Eyes Observed, N (nuclear cataract) (Study Day 20): 1 eyes
- Number of Eyes Observed, S (snowflake) (Study Day 20): 14 eyes
- Number of Eyes Observed, ± (Study Day 20): 2 eyes
- % of Total Eyes, + (vacuole) (Study Day 22): 20.8%
- % of Total Eyes, - (Normal) (Study Day 22): 0%
- % of Total Eyes, N (nuclear cataract) (Study Day 22): 8.3%
- % of Total Eyes, S (snowflake) (Study Day 22): 70.8%
- Number of Eyes Observed, + (vacuole) (Study Day 22): 5 eyes
- Number of Eyes Observed, - (Normal) (Study Day 22): 0 eyes
- Number of Eyes Observed, N (nuclear cataract) (Study Day 22): 2 eyes
- Number of Eyes Observed, S (snowflake) (Study Day 22): 17 eyes
- Number of Eyes Observed, ± (Study Day 22): 0 eyes
- % of Total Eyes, + (vacuole) (Study Day 24): 20.8%
- % of Total Eyes, - (Normal) (Study Day 24): 0%
- % of Total Eyes, N (nuclear cataract) (Study Day 24): 8.3%
- % of Total Eyes, S (snowflake) (Study Day 24): 70.8%
- Number of Eyes Observed, + (vacuole) (Study Day 24): 5 eyes
- Number of Eyes Observed, - (Normal) (Study Day 24): 0 eyes
- Number of Eyes Observed, N (nuclear cataract) (Study Day 24): 2 eyes
- Number of Eyes Observed, S (snowflake) (Study Day 24): 17 eyes
- Number of Eyes Observed, ± (Study Day 24): 0 eyes
- % of Total Eyes, + (vacuole) (Study Day 26): 16.7%
- % of Total Eyes, - (Normal) (Study Day 26): 0%
- % of Total Eyes, N (nuclear cataract) (Study Day 26): 8.3%
- % of Total Eyes, S (snowflake) (Study Day 26): 75.0%
- Number of Eyes Observed, + (vacuole) (Study Day 26): 4 eyes
- Number of Eyes Observed, - (Normal) (Study Day 26): 0 eyes
- Number of Eyes Observed, N (nuclear cataract) (Study Day 26): 2 eyes
- Number of Eyes Observed, S (snowflake) (Study Day 26): 18 eyes
- Number of Eyes Observed, ± (Study Day 26): 0 eyes
- % of Total Eyes, + (vacuole) (Study Day 28): 16.7%
- % of Total Eyes, - (Normal) (Study Day 28): 0%
- % of Total Eyes, N (nuclear cataract) (Study Day 28): 16.7%
- % of Total Eyes, S (snowflake) (Study Day 28): 66.7%
- Number of Eyes Observed, + (vacuole) (Study Day 28): 4 eyes
- Number of Eyes Observed, - (Normal) (Study Day 28): 0 eyes
- Number of Eyes Observed, N (nuclear cataract) (Study Day 28): 4 eyes
- Number of Eyes Observed, S (snowflake) (Study Day 28): 16 eyes
- Number of Eyes Observed, ± (Study Day 28): 0 eyes
- % of Total Eyes, + (vacuole) (Study Day 30): 4.2%
- % of Total Eyes, - (Normal) (Study Day 30): 0%
- % of Total Eyes, N (nuclear cataract) (Study Day 30): 16.7%
- % of Total Eyes, S (snowflake) (Study Day 30): 79.2%
- Number of Eyes Observed, + (vacuole) (Study Day 30): 1 eyes
- Number of Eyes Observed, - (Normal) (Study Day 30): 0 eyes
- Number of Eyes Observed, N (nuclear cataract) (Study Day 30): 4 eyes
- Number of Eyes Observed, S (snowflake) (Study Day 30): 19 eyes
- Number of Eyes Observed, ± (Study Day 30): 0 eyes
- time to vacuole formation, 0.0025% methylthio versus 0.01% sulfinyl (methylthio 0.0025%, sulfinyl 0.01% in diet): not different from each other
